# According to patent US20080286301A1, “Treatment of diabetes” (priority 1997, published 2008):
# “Also recorded” adds a separate entry of the source.
# Tests used:
# Format in all cases: in vivo, human
# [1] = test system: subjects with remission phase Type I diabetes; test: Sustacal meal with infusion of 0.75 pm/kg/min GLIP (Example 3); conditions: versus saline infusion control, FIG. 3
# Description: Four subjects with remission phase Type I diabetes were studied during infusion with 0.75 pm/kg/min-GLIP for 120 minutes after a Sustacal meal.
# The test was conducted as described in Example 1 and blood glucose and C-peptide levels were measured. On a further test day, the subjects were studied during saline infusion after a similar Sustacal meal.
# [2] = test system: subjects with remission phase Type I diabetes; test: Sustacal meal with intravenous GLIP infusion 1.2 pm/kg/min (Example 1); conditions: IV GLIP 1.2 pm/kg/min for 120 min after Sustacal meal; for gastrin levels / gastrin response: FIG. 1 Panel E
# Description: 7 subjects with remission phase Type I diabetes were studied after ingestion of a standardised meal of Sustacal (Upjohn) (delivering […]). Subjects continued their normal insulin treatment programme on the day prior to the test and, on the day of the test, omitted their morning insulin injection and arrived fasting at 8:00 am. […] Infusion was continued for 120 minutes. Blood levels of glucose, C-peptide, gastrin, glucagon and HPP were monitored by standard radioimmunoassay methods in samples taken before and at intervals during the study, up to 180 minutes. On another test day, subjects were given the Sustacal meal alone and the same analytes were similarly monitored.
# [3] = test system: normal volunteers; test: Sustacal meal preceded by subcutaneous injection of GLIP in normal volunteers (Example 4); conditions: 100 μg GLIP sc before Sustacal meal
# Excerpt: Results are shown in FIG. 4. *indicates statistically significant differences between treatments (p<0.05).
# [4] = test system: Type I diabetic subjects; test: Sustacal meal preceded by subcutaneous injection of 100 μg GLIP in Type I diabetics (Example 5); conditions: 100 μg GLIP sc prior to test meal
# Excerpt: Type I diabetic subjects were studied.
# The results are shown in FIG. 5. *indicates statistically significant differences between treatments (p<0.05).
# [5] = test system: subjects with remission phase Type I diabetes; test: Intravenous glucose infusion with intravenous GLIP (Example 2); conditions: IV GLIP 1.2 pm/kg/min for 60 min along with IV glucose 20 g over 60 min; FIG. 2
# [6] = Blood levels of GLIP by radioimmunoassay after subcutaneous injection (Example 6); conditions: 50 μg GLIP sc with 5 units insulin, Type I diabetic subject; FIG. 6 Panel E
# Description: (§1) One Type 1 diabetic subject was given GLIP along with insulin and the effects on post-prandial glycaemia observed. The subject received 5 units of insulin and 50 μg GLIP as subcutaneous injections immediately prior to ingestion of a Sustacal meal as described in Example 1. Blood levels of GLIP were monitored by a standard radioimmunoassay method.
# [7] = test system: Type 1 diabetic subject; test: GLIP along with insulin subcutaneously prior to Sustacal meal, post-prandial glycaemia (Example 6); conditions: 50 μg GLIP sc along with 5 units insulin (half the usual dose) prior to Sustacal meal; one subject; FIG. 6 Panel A
# Description: as §1
substance,measurement,setting,value
Glucagon-like peptide 1(7-36)amide [GLIP],C-peptide,[1]; lower dose of GLIP (0.75 pmol/kg/min) along with a meal,some increase
same,blood glucose,[1]; lower dose of GLIP (0.75 μmol/kg/min) along with a meal,some increase; also recorded: less than in the control experiment
same,blood levels of C-peptide,[2]; FIG. 1,prevented a significant increase in blood levels of C-peptide
same,plasma glucagon levels stimulated by the meal,[2]; FIG. 1,prevented the mean rise in plasma glucagon levels
same,secretion of pancreatic polypeptide (PP) after the meal,[2]; FIG. 1 Panel C,this response was absent
same,gastrin levels / gastrin response,[2],not significantly affected
same,gastrin levels / gastrin response,[2]; listed as CLIP,normal gastrin response
same,increase in blood levels of C-peptide,[3],delay in increase
same,increase in blood levels of HPP,[3],delay in increase
same,increase in blood levels of glucose,[3],delay in increase
same,increase in blood levels of insulin,[3],delay in increase
same,blood glucose levels compared to control,[4]; FIG. 5 Panel A,lowering of blood glucose levels
same,pancreatic polypeptide (HPP) levels,[4]; FIG. 5 Panel D,delayed rise in pancreatic polypeptide (HPP) levels
same,insulin secretion over control levels,[4]; FIG. 5 Panels B and C,no enhancement of insulin secretion over control levels
same,control of blood glucose level,[5],improved control of blood glucose level
same,time to clearance from the blood,[6],about two
same,blood glucose after standard meal (highest level),[7],≤ 8 mM
